The source of these data is patent EP1605929B1, “NON-STEROIDAL ANTI-INFLAMMATORY DRUG DOSING REGIMEN” (McNeil-PPC, Inc., priority 2003, dated 2004).

A short description of assay [1]: Therapeutic duration of action of an effective immediate release dose, from dosing instructions in product labeling. As to the method:
As used herein, "ATDAIRD" shall mean the average therapeutic duration of action of an effective immediate release dose" of a particular active ingredient. For example, the typical duration of action of an immediate release dose of ibuprofen or ketoprofen is about 4 to about 6 hours. […] The therapeutic duration of action of a particular active ingredient can readily be determined from the dosing instructions in the labeling for immediate release products containing that particular active ingredient.

In assay [2] the test system is moderate to severe post-operative dental pain. Kind of assay: PK/PD dental pain study, pain relief scores and pain intensity differences over a 12 hour observation period. The class given is in vivo, human. As to the method:
A double-blind, randomized, parallel, placebo-controlled, single center, PK/PD dental pain study was conducted over a 12 hour observation period to evaluate the pharmacokinetic, pharmacodynamic, efficacy and safety profiles of certain ibuprofen dosing regimens. Specifically, a single dose of 600 mg ibuprofen extended release caplets was compared with equivalent total doses of ibuprofen immediate release 200 mg caplets administered in three different dosing regimens as well as placebo in the treatment of moderate to severe post-operative dental pain.
The ibuprofen was administered as ibuprofen extended release 600 mg caplets or one or more ibuprofen immediate release 200 mg caplets.
The patients evaluated in this study consisted of male or non-pregnant and non-lactating female out-patient volunteers, 16 years of age or older, complaining of moderate to severe pain following the surgical extraction of three or four third molars with at least one partial or complete bony impacted third mandibular molar. The term impacted included: partial bony impaction, bony impaction, or complicated bony impaction. A total of 210 patients were entered into the study. 208 patients were eligible for the efficacy analyses.
All patients who met the entrance criteria were enrolled in one of two study sub-groups. One sub-group of patients had both pharmacokinetic and pharmacodynamic evaluation (PK group). The other sub-group of patients had only the analgesic efficacy evaluations (non-PK group). A separate randomization schedule was used for each of the two sub-groups. Patients from both subgroups were assigned at random to one of the five following treatments:
Patients' assessments of pain intensity and pain relief as well as blood samples for plasma ibuprofen analysis were obtained at the study site at hours 0, 0.25, 0.5, 1, 1.5, 2, 2.5, 3, 4, 4.5, 5, 6, 7, 8, 8.5, 9, 10, 11 and 12. A stopwatch technique was used to measure the onset of meaningful pain relief.

Take `COc1ccc2cc([C@H](C)C(=O)O)ccc2c1` [naproxen]: the “ATDAIRD (average therapeutic duration of action of an effective immediate release dose)” value in assay [1] came out at 10 h.
Same read-out and setting: under `CC(C(=O)O)c1cccc(C(=O)c2ccccc2)c1` (centres unmarked) [ketoprofen] stands 5 h.
In the case of `CC(C)Cc1ccc(C(C)C(=O)O)cc1` (centres unmarked) [ibuprofen, 2-(4-isobutylphenyl)-propionic acid], the pain relief result is listed as “excellent pain relief” in assay [2] (400/200/0 administration (immediate release, 400 mg at 0 hour; 200 mg at 4 hours), entire 12 hour study period, Figure 2); “superior pain relief over the other treatments” in assay [2] (400/200/0 treatment (immediate release, 400 mg at 0 hour; 200 mg at 4 hours), first four hours, Figure 2); “superior pain relief over the other treatments” in assay [2] (600/0/0 immediate release treatment (600 mg single dose at 0 hour), first four hours, Figure 2). In assay [2] (400/200/0 treatment, 4 to 12 hour interval, no further ibuprofen after the first four hours, Figure 2), the pain relief scores result is on record as “highest pain relief scores”. Moreover, the “pain intensity differences (PID)” value in assay [2] (400/200/0 treatment, 12 hour study period, particularly after the four hour mark, Figure 3) is listed as “best PID”. The “ATDAIRD (average therapeutic duration of action of an effective immediate release dose)” value in assay [1] was 5 h.
